# Test results published in patent US20040253139A1, “Environmental surface disinfectant” (priority 2003, published 2004).
# Test system: E. coli (ATCC 25922)
# Experiment: Lower effective concentration of ethyl lactate, modification of AOAC Method 956.17
# Assay type: cell-based
# Conditions: 15% solution of ethyl lactate, exposure 10 minutes
# Protocol: Using a modification of AOAC Method 956.17, the lower effective concentration for ethyl lactate was tested against E. coli (ATCC 25922) at three reaction times at varying concentrations of ethyl lactate.
structure (smiles),measurement,value
CCOC(=O)C(C)O (stereo not shown) [ethyl lactate],Bacterial growth,eliminated bacterial growth
